Source: US20160243136A1, “PHARMACEUTICAL FORMULATIONS CONTAINING MITOCHONDRIALLY TARGETED ANTIOXIDANTS” (Mitotech SA, priority 2013, published 2016)

Legend:
[1] = system: Human neutrophils; experiment: f-MLP-stimulated neutrophil MMP-9 release by zymography; format: cell-based; details: 0.2 nM, 2 nM, and 200 nM; 1.5 hr pre-incubation; 1 nM f-MLP 30 min; vs vehicle control
Protocol: Human neutrophils were isolated from anticoagulated blood of healthy donors. Neutrophils were pre-incubated with 0.2 nM, 2 nM, 20 nM, 200 nM, and 500 nM SkQ1 solution in RPMI-1640 medium supplemented with 10% fetal serum for 1.5 hr at 37° C. in 5% CO2. The cells were then stimulated with 1 nM N-formyl-methionine-leucine-phenylalanine (f-MLP) for 30 min. The supernatants from the cells were used to detect MMP-9 activity by zymography analysis (MMP-9 release was used to estimate tissue damage). The data from this assay was shown as means at least for 3 separate experiments.

[2] = system: Wistar rats with acute pancreatitis; experiment: Arginine-induced acute pancreatitis model; format: in vivo, rat; details: for MPO activity in pancreatic tissue homogenates: control 52.9, intact 6.1
Protocol: Kidney homogenates for MPO determination were centrifuged at 20000 g 15 min, the pellets were resuspended in 50 mM K-phosphate buffer containing 0.5% CTAB. Resulted samples were frozen and thawed three times and then centrifuged at 10600 g 10 min. Supernatants were analyzed for MPO activity in chromogenic reaction with o-phenylenediamine (OPD). 100 μl sample was mixed with 100 μl substrate buffer (25 mM Na-citrate, 50 mM Na-phosphate, 0.45 mg/ml OPD, 0.1% H2O2, pH 5.0) and was incubated 15 min at room temperature and then OD was detected at 492 nm.
42 Wistar rats (age: 20-25 week, weight 400 g-750 g) were distributed among 4 experiemntal groups with the same average weight. SkQ1 was administered with drinking water with an estimated dosage of 250 nmoles/kg/day or 50 nmoles/kg/day. Acute pancreatitis was induced by a single intraperitoneal (ip) injection of arginine (100 mg/100 g of animal weight; 20% arginine solution in about 2.5 ml phosphate buffer).
The experimental groups were: (1) Intact (n=10); (2) Control (n=10) treated with arginine ip injection; (3) SkQ250-SkQ1 pretreatment with 250 nmoles/kg/day dosage for 9 days; IP injection of arginine on day 9, continuation of SkQ1 treatment for 24 hr (n=10); and (4) SkQ50-SkQ1 pretreatment with 50 nmoles/kg/day dosage for 9 days. IP injection of arginine on day 9, continuation of SkQ1 treatment for 24 hr (n=10).
The activity of pancreatic myeloperoxidase (MPO) was also measured as described in Example 1 (for kidney tissue).
Samples of pancreas were fixed in 10% formalin and then prepared for eosin-hematoxylin staining of 5 μm-6 μm slices using standard techniques. Stained samples (slices) were examined under light microscopy.
The intensity of inflammation in the samples was measured by a standard ascending scale score from 0 to 3. The average score of inflammation in rats without SkQ treatment was 1.5.

CC1=C(C)C(=O)C(CCCCCCCCCC[P+](c2ccccc2)(c2ccccc2)c2ccccc2)=CC1=O [SkQ1, 10-(6-plastoquinonyl)decyl-triphenylphosphonium]
neutrophil-MMP-9 activation induced by f-MLP [1]: prevented
MPO activity in pancreatic tissue homogenates ([2]; SkQ50: 50 nmoles/kg/day for 9 days + 24 hr): 50.0
Average inflammation score (pancreas histology, scale 0 to 3) ([2]; SkQ50: 50 nmoles/kg/day, untreated pancreatitis 1.5): 1.5
MPO activity in pancreatic tissue homogenates ([2]; SkQ250: 250 nmoles/kg/day for 9 days + 24 hr): 15.8
weight of the pancreas (edema) ([2]; both dosages (250 and 50 nmoles/kg/day in drinking water)): prevented an increase
